Test: Metabolic stability in human liver microsomes
Assay type: in vitro ADME
Details: Human Liver Microsome (HLM)
Method: Working solution: 5 µL of compound and control stock solution (10 mM in dimethyl sulfoxide (DMSO)) were diluted with 495 µL of acetonitrile (ACN) (intermediate solution concentration: 100 µM, 99% ACN)
NADPH Cofactor Preparation: NADPH powder: β-Nicotinamide adenine dinucleotide phosphate reduced form, tetrasodium salt; NADPH 4 Na. The appropriate amount of NADPH powder was weighed and diluted into a 10 mM MgCl2 solution (working solution concentration: 10 unit/mL; final concentration in reaction system: 1 unit/mL)
Liver Microsomes Preparation: The appropriate concentrations of microsome working solutions were prepared in 100 mM potassium phosphate buffer. Cold (4° C.) acetonitrile (ACN) containing 200 ng/mL tolbutamide and 200 ng/mL labetalol as internal standards (IS) was used as the stop solution
Assay Procedure: Pre-warm empty ‘Incubation’ plates T60 and NCF60 for 10 minutes. Dilute liver microsomes to 0.56 mg/mL in 100 mM phosphate buffer. Transfer 445 µL microsome working solutions (0.56 mg/mL) into pre-warmed ‘Incubation’ plates T60 and NCF60, Then pre-incubate ‘Incubation’ plates T60 and NCF60 for 10 min at 37° C. with constant shaking. […]
The biological stability of the compounds of the invention can be measured by determining its ½ life in the presence microsomes. […]

CS(=O)(=O)Nc1cc(-c2ccc3ncnc(Nc4cccc(Cl)c4F)c3c2)cnc1Cl [Compound 6, N-[2-chloro-5-[4-(3-chloro-2-fluoro-anilino)quinazolin-6-yl]-3-pyridyl] methanesulfonamide]
half-life at 1 µM: 10 to 100 min

Reference: patent US20230133958A1, “COMPOUNDS USEFUL IN MODULATING EGFR AND PI3K” (Mekanistic Therapeutics LLC, priority 2021, published 2023)
